Laboratory results from ChEMBL document CHEMBL1130538, “Catalytic mechanism of KDO8P synthase: synthesis and evaluation of a putative reaction intermediate” (Bioorg Med Chem Lett, 1997).

What was measured:
[1] = Half-life was determined at pD 7.0 and 25 degree Centigrade; type: ADME; conditions: pH 7
[2] = The inhibitory activity against KDO 8-P synthase was determined; design: species or system Escherichia coli
[3] = Half-life was determined at pD 7.0 and 37 degree Centigrade; type: ADME; conditions: pH 7

half-life [1]: 4.7 h | Ki [2]: 35 µM | half-life [3]: 2.5 h
SMILES: O=C(O)C1(OP(=O)(O)O)CC(O)C(O)C([C@H](O)COP(=O)(O)O)O1 (stereo partly drawn)
